Source: article PMC5128743, “Marine Fungi as Producers of Benzocoumarins, a New Class of Inhibitors of Glycogen-Synthase-Kinase 3β” (Marine Drugs, 2016)
Like-named read-outs stand apart in the source and are kept apart here. One block for each compound: values may come before it.

Tests used:
[1] = test system: Bacillus subtilis (DSM 347); assay: Growth inhibition of Bacillus subtilis; assay type: cell-based
Description: (§1) The assay is based on the phosphorylation of a peptide by the enzyme with ATP as phosphate donor. ATP, luciferin, and oxygen react to oxyluciferin, which is measured as a luminescence signal. The more the enzyme is inhibited, the stronger the luminescence signals are because of high ATP levels. 20 μL substrate solution (2 μM ATP, 40 μM peptide HSSPHQ-pSer-EDEEE (BIOSYNTAN, Berlin, Germany)) and 10 μL enzyme solution (12 mU GSK-3β (N-terminal His6-tagged recombinant human GSK3β with an H350L mutation, EMD Millipore, Billerica, MA, USA)) were incubated for 60 min at 25 °C. Then 40 μL Kinase-Glo reagent (Kinase-Glo Luminescent Assay Kit, Promega, Darmstadt, Germany) was added. After centrifugation and incubation for 10 min at 25 °C, the luminescence was measured. […] The antimicrobial activities of compounds 1, 2, and 3 against the bacterium Bacillus subtilis (DSM 347) and the human pathogenic yeast Candida albicans (DSM 1386) were determined according to Ohlendorf et al.. The determination of inhibitory activities against Xanthomonas campestris, Septoria tritici, and Propionibacterium acnes, as well as the cytotoxic activity against the cell line […] was carried out as described by Schneemann et al..

Staphylococcus lentus = assay: Growth inhibition of Staphylococcus lentus; assay type: cell-based; conditions: Mammaliicoccus lentus; test concentration of 100 μM; read-out: inhibition of growth of S. lentus
[2] = molecular target: T1, GSK-3β (N-terminal His6-tagged recombinant human GSK3β with an H350L mutation) (Homo sapiens, UniProt P49841); assay: GSK-3β luminescent (Kinase-Glo) inhibition assay; assay type: biochemical
T1 construct: His6 (N); purchased EMD Millipore, Billerica, MA, USA
Description: as §1

HepG2 = assay: Cytotoxic activity against cancer cell line HepG2; conditions: concentration not given
Description: as §1

[3] = test system: HMGCoA (3-hydroxy-3-methylglutaryl coenzyme A reductase); set-up: method as in PMID 1880066; conditions: cited from earlier work
[4] = DSM347, read-out: inhibition of growth of B. subtilis
[5] = luminescent assay, 2 μM ATP substrate solution, 60 min at 25 °C

T1 sequence (P49841 whole entry, stated change not applied): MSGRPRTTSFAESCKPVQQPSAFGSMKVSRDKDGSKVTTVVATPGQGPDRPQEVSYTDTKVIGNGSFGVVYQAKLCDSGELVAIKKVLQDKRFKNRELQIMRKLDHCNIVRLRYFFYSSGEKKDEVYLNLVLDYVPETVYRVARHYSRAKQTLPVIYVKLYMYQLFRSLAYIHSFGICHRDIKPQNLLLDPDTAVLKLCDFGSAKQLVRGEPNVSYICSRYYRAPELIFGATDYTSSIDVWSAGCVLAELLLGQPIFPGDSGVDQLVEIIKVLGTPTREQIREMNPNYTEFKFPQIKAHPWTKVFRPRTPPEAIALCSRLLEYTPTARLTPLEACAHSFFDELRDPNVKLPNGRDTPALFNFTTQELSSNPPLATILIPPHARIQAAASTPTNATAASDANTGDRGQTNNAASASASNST

SMILES: COc1cc(O)c2c(=O)oc3cc(O)cc(C)c3c2c1 [Compound 3, alternariol-9-methylether]
inhibition at 100 µM [1, 4]: 82%
inhibition at 100 µM (Staphylococcus lentus): 25%
IC50 [2]: 200 ± 20 nM
IC50 of GSK-3β inhibition [2, 5]: sub-μM
inhibition (cytotoxic effect) of cancer cell line HepG2 (HepG2): lower than 35%

SMILES: Cc1cc(O)cc2oc(=O)c3c(O)cc(O)cc3c12 [Compound 2, alternariol]
inhibition at 100 µM [1, 4]: 79%
inhibition at 100 µM (Staphylococcus lentus): 66%
IC50 [2]: 130 ± 40 nM
IC50 of GSK-3β inhibition [2, 5]: sub-μM
inhibition (cytotoxic effect) of cancer cell line HepG2 (HepG2): lower than 35%

IC50 of GSK-3β inhibition [2, 5]: sub-μM
IC50 ([2]; luminescent assay, 2 μM ATP substrate solution, 60 min at 25 °C, read-out: IC50 of GSK-3β inhibition): 350 ± 40 nM
SMILES: Cc1cc2cc(O)cc(O)c2c2oc(=O)cc(O)c12 [Compound 1, pannorin]
inhibition at 100 µM ([1]; DSM347, test concentration of 100 μM, read-out: inhibition of growth of B. subtilis): 54%
inhibition at 100 µM (Staphylococcus lentus): 88%
HMGCoA reductase inhibiting activity [3]: inhibiting activity
inhibition (cytotoxic effect) of cancer cell line HepG2 (HepG2): lower than 35%
